Structures are written as SMILES. Active and inactive are the calls of the source. No rule for the calls is given here.

In PubChem BioAssay AID602307 (Southern Research Specialized Biocontainment Screening …, 2012) one finds log virus titer change and outcome data, which are given here for 17 compounds.

In the assay the test system is VEEV TC-83 infected cells, virus titer reduction. The experiment in a line: VEEV titer reduction by compounds, cell-based, TC-83 strain, virus titer (AID 602307). As to conditions: for log virus titer change: stronger effect = lower value.

With `CN1CCN(Cc2nc3ccc([N+](=O)[O-])cc3c(=O)n2-c2ccccc2F)CC1`, the log virus titer change (at 5 µM) is less than -6.36.

For `O=c1nc(Nc2ccc(OCc3ccccc3)cc2)sc2ncccc12`, the result was active. The compound further had a log virus titer change (titer change, at 10 µM) of -3.43.

Regarding `CCOC(=O)c1ccc(Nc2nc(=O)c3cccnc3s2)cc1`, the outcome was active. Under “titer change, at 10 µM”, this compound had a log virus titer change of -3.31.

On to `CN(C(=O)Cc1cccs1)c1nc2c(s1)CCCC2`, for which, where the note is “at 5 µM”, the log virus titer change was 0.281 (inactive).

Turning to `O=C(Nc1nc2c(s1)CCCC2)c1cccs1`, the log virus titer change (at 5 µM) was -0.12 (inactive).

With `O=c1c2cc([N+](=O)[O-])ccc2nc(CN2CCN(c3ccccc3)CC2)n1-c1ccccc1F`, the outcome was active. Moreover, the log virus titer change (titer change, at 10 µM) was -1.3.

Consider `O=C(Cc1cccs1)Nc1nc2ccccc2s1`, for which the log virus titer change (at 5 µM) is -0.238 (inactive).

`O=C(Oc1ccc2ccccc2c1Br)N1CCCCCC1`: the outcome was active. The log virus titer change (titer change, at 10 µM) was -2.09.

On to `O=c1c2cc([N+](=O)[O-])ccc2nc(CN2CCOCC2)n1-c1ccccc1F`, for which, under “at 5 µM”, the log virus titer change was 0.297 (inactive).

On to `O=C(Cc1cccs1)Nc1nc2c(s1)CCCC2`, for which the outcome was active. Further, under “titer change, at 10 µM”, the log virus titer change was -2.14.

Consider `Cc1cc(Cc2cc(C)cc(C(C)(C)C)c2O)c(O)c(Cc2cc(C)cc(C(C)(C)C)c2O)c1`, for which the log virus titer change (at 5 µM) is -0.734 (inactive).

In the case of `O=C(Cc1ccccc1)Nc1nc2c(s1)CCCC2`, the log virus titer change (at 5 µM) is -0.01 (inactive).

Consider `Clc1ccc2nnnc(-c3ccccc3)c2c1`, for which the outcome was active. This compound also returned a log virus titer change (titer change, at 10 µM) of -4.36.

For the compound `CC(C)N1CCN(Cc2nc3ccc([N+](=O)[O-])cc3c(=O)n2-c2ccccc2F)CC1`, for the setting “at 5 µM”, the log virus titer change was 0.041 (inactive).

As for `CCN1CCN(Cc2nc3ccc([N+](=O)[O-])cc3c(=O)n2-c2ccccc2F)CC1`, the log virus titer change by setting is: (at 5 µM) less than -6.36; (titer change, at 10 µM) -5.8.

As for `O=C(Cc1cccs1)Nc1nccs1`, the log virus titer change (at 5 µM) was -0.062 (inactive).

Consider `Cc1ccccc1C(=O)Nc1ccc2c(c1)CCCN2C(=O)c1cccs1`, for which the result was active. Also, for the setting “titer change, at 10 µM”, the log virus titer change was -2.04.
